≈ marks a conversion by molar mass, not a printed value. Where two headings read alike, the source gives them in different places.
What was measured:
[1] = tested on: Pseudomonas aeruginosa TI-13; test: Minimum inhibitory concentration, serial dilution on nutrient agar; type: cell-based
[2] = tested on: Klebsiella pneumoniae 22 #3038; test: as above; type: cell-based; details: 18 h
[3] = tested on: Escherichia coli K-12 LA 290 R55; test: as above; type: cell-based; details: K12LA290R55, 18 h
[4] = tested on: Escherichia coli K-12 ML 1410; test: as above; type: cell-based
[5] = tested on: Shigella dysenteriae JS 11910; test: as above; type: cell-based; details: JS11910, 18 h
[6] = tested on: Escherichia coli K-12 LA 290 R64; test: as above; type: cell-based; details: K12LA290R64, 18 h
[7] = tested on: Escherichia coli K-12 ML 1410 R81; test: as above; type: cell-based; details: 18 h
[8] = tested on: Bacillus subtilis PCI 219; test: as above; type: cell-based; details: PCI219, 37° C., 18 hours incubation
Salmonella typhi T-63 = test: as above; type: cell-based; details: Salmonella enterica, 18 h
[9] = tested on: Escherichia coli K-12 LA 290 R56; test: as above; type: cell-based; details: K12LA290R56, 18 h
Providencia Pv 16 = test: as above; type: cell-based; details: PV16, 37° C., 18 hours incubation
Proteus rettgeri GN466 = test: as above; type: cell-based; details: Providencia rettgeri
[10] = tested on: Escherichia coli K-12 J5R 11-2; test: as above; type: cell-based; details: K12J5R112, 37° C., 18 hours incubation
Text: (§1) The minimum inhibitory concentration (mcg/ml) of 1-N-[(S)-4-amino-2-hydroxybutyryl]-5,3',4'-trideoxykanamycin B (abbreviated as AHB-trideoxyKMB), 1-N-[(RS)-3-amino-2-hydroxypropionyl]-5,3',4'-trideoxykanamycin B (abbreviated as AHP-trideoxy-KMB) and 1-N-[(S)-4-amino-2-hydroxybutyryl]-5,3',4',6"-tetradeoxykanamycin B (abbreviated as AHB-tetradeoxyKMB) of the formula (II) according to this invention as well as of the new compound 5,3',4',6"-tetradeoxykanamycin B (abbreviated as tetradeoxyKMB) of the formula (III) according to this invention against various microorganisms were determined according to serial dilution method on a nutrient agar medium at 37° C., the estimation being made after 18 hours incubation. For comparison purpose, the minimum inhibitory concentrations of habekacin were also determined in the same manner as stated above.
(§2) The minimum inhibitory concentrations (mcg/ml) of 1-N-[(S)-4-amino-2-hydroxybutyryl]-5,3',4'-trideoxy-6'-N-methylkanamycin B (abbreviated as AHB-trideoxyMKMB), 1-N-[(RS)-3-amino-2-hydroxypropionyl]-5,3',4'-trideoxy-6'-N-methylkanamycin B (abbreviated as AHP-trideoxyMKMB) and 1-N-[(S)-5-amino-2-hydroxyvaleryl]-5,3',4'-trideoxy-6'-N-methylkanamycin B (abbreviated as AHV-trideoxyMKMB) of the formula (IV) according to this invention as well as of the new compound 5,3',4'-trideoxy-6'-N-methylkanamycin B (abbreviated as trideoxyMKMB) of the formula (V) according to this invention against various microorganisms were determined according to serial dilution method on a nutrient agar medium at 37° C., the estimation being made after 18 hours incubation. For comparison purpose, the minimum inhibitory concentrations of 1-N-[(S)-4-amino-2-hydroxybutyryl]-3',4'-dideoxykanamycin B (ie. habekacin) were also determined in the same manner as stated above.

[11] = tested on: Shigella flexneri 4b JS11811; test: as above; type: cell-based; details: 4BJS11811, 37° C., 18 hours incubation
Text: as §1, §2

[12] = tested on: Escherichia coli K-12 C 600R/35; test: as above; type: cell-based; details: K12C600R/35, 37° C., 18 hours incubation
Text: as §1, §2

Serratia marcescens = test: as above; type: cell-based; details: 37° C., 18 hours incubation
[13] = tested on: Escherichia coli K-12 ML 1629; test: as above; type: cell-based
[14] = tested on: Staphylococcus aureus Smith; test: as above; type: cell-based; details: 37° C., 18 hours incubation
[15] = tested on: Klebsiella pneumoniae PCI 602; test: as above; type: cell-based
[16] = Acute toxicity by intravenous injection in mice; details: mouse, in vivo
Serratia SOU = test: Minimum inhibitory concentration, serial dilution on nutrient agar; type: cell-based; details: 37° C., 18 hours incubation
[17] = tested on: Staphylococcus aureus 209P; test: as above; type: cell-based; details: 37° C., 18 hours incubation
Sarcina lutea PCI 1001 = test: as above; type: cell-based; details: Micrococcus luteus
[18] = tested on: Escherichia coli JR66/W677; test: as above; type: cell-based
[19] = tested on: Pseudomonas aeruginosa ROS134/PU21; test: as above; type: cell-based; details: ROS134/PU21, 18 h
[20] = K12ML1410, nutrient agar, 37° C., 18 hours incubation, read-out: MIC
[21] = K12ML1629, nutrient agar, 37° C., 18 hours incubation, read-out: MIC
[22] = PCI602, nutrient agar, 37° C., 18 hours incubation, read-out: MIC
[23] = PCI1001, nutrient agar, 37° C., 18 hours incubation, read-out: MIC
[24] = JR66/W677, nutrient agar, 37° C., 18 hours incubation, read-out: MIC

Compound | MIC ([1]; TI13, 18 h) | MIC [2] | MIC [3] | MIC [4, 20] | MIC [5] | MIC [6] | MIC [7] | MIC [8] | MIC (Salmonella typhi T-63) | MIC [9] | MIC (Providencia Pv 16) | MIC [10] | MIC [11] | MIC [12] | MIC (Serratia marcescens) | MIC [14] | LD50 [16] | MIC (Serratia SOU) | MIC [17] | MIC [19] | other results
NCC[C@H](O)C(=O)N[C@@H]1C[C@H](N)[C@@H](O[C@H]2O[C@H](CN)CC[C@H]2N)C[C@H]1O[C@H]1O[C@H](CO)[C@@H](O)[C@H](N)[C@H]1O [AHB-trideoxyKMB, 1-N-[(S)-4-amino-2-hydroxybutyryl]-5,3',4'-trideoxykanamycin B] | 3.13 µg/mL (≈ 5.83 µM) | 3.13 µg/mL (≈ 5.83 µM) | 3.13 µg/mL (≈ 5.83 µM) | 1.56 µg/mL (≈ 2.91 µM) | 3.13 µg/mL (≈ 5.83 µM) | 0.78 µg/mL (≈ 1.45 µM) | 1.56 µg/mL (≈ 2.91 µM) | < 0.2 µg/mL | 25 µg/mL (≈ 46.6 µM) | 0.78 µg/mL (≈ 1.45 µM) | 12.5 µg/mL (≈ 23.3 µM) | 0.78 µg/mL (≈ 1.45 µM) | 3.13 µg/mL (≈ 5.83 µM) | 0.78 µg/mL (≈ 1.45 µM) | 25 µg/mL (≈ 46.6 µM) | < 0.2 µg/mL | 25 to 50 mg/kg | 100 µg/mL (≈ 186 µM) | < 0.2 µg/mL | > 100 µg/mL | MIC (Proteus rettgeri GN466; GN466, 18 h): 3.13 µg/mL (≈ 5.83 µM); MIC [13, 21]: 1.56 µg/mL (≈ 2.91 µM); MIC [15, 22]: 0.78 µg/mL (≈ 1.45 µM); MIC (Sarcina lutea PCI 1001; [23]): 0.39 µg/mL (≈ 0.727 µM); MIC [18, 24]: 1.56 µg/mL (≈ 2.91 µM)
NCC(O)C(=O)N[C@@H]1C[C@H](N)[C@@H](O[C@H]2O[C@H](CN)CC[C@H]2N)C[C@H]1O[C@H]1O[C@H](CO)[C@@H](O)[C@H](N)[C@H]1O (stereo partly drawn) [AHP-trideoxyKMB, 1-N-[(RS)-3-amino-2-hydroxypropionyl]-5,3',4'-trideoxykanamycin B] | – | 6.25 µg/mL (≈ 12 µM) | 3.13 µg/mL (≈ 5.99 µM) | 1.56 µg/mL (≈ 2.99 µM) | 6.25 µg/mL (≈ 12 µM) | 1.56 µg/mL (≈ 2.99 µM) | – | < 0.2 µg/mL | 50 µg/mL (≈ 95.7 µM) | 1.56 µg/mL (≈ 2.99 µM) | 25 µg/mL (≈ 47.8 µM) | 1.56 µg/mL (≈ 2.99 µM) | 6.25 µg/mL (≈ 12 µM) | 1.56 µg/mL (≈ 2.99 µM) | 25 µg/mL (≈ 47.8 µM) | < 0.2 µg/mL | 25 to 50 mg/kg | > 100 µg/mL | < 0.2 µg/mL | > 100 µg/mL | MIC ([1]; TI13, nutrient agar, 37° C., 18 hours incubation, read-out: MIC): 3.13 µg/mL (≈ 5.99 µM); MIC (Proteus rettgeri GN466; GN466, nutrient agar, 37° C., 18 hours incubation, read-out: MIC): 3.13 µg/mL (≈ 5.99 µM); MIC [13, 21]: 3.13 µg/mL (≈ 5.99 µM); MIC [15, 22]: 1.56 µg/mL (≈ 2.99 µM); MIC (Sarcina lutea PCI 1001; [23]): 0.78 µg/mL (≈ 1.49 µM); MIC [18, 24]: 3.13 µg/mL (≈ 5.99 µM)
CNC[C@@H]1CC[C@@H](N)[C@@H](O[C@H]2C[C@@H](O[C@H]3O[C@H](CO)[C@@H](O)[C@H](N)[C@H]3O)[C@H](NC(=O)[C@@H](O)CCCN)C[C@@H]2N)O1 [AHV-trideoxyMKMB, 1-N-[(S)-5-amino-2-hydroxyvaleryl]-5,3',4'-trideoxy-6'-N-methylkanamycin B] | 1.56 µg/mL (≈ 2.76 µM) | 3.13 µg/mL (≈ 5.54 µM) | 3.13 µg/mL (≈ 5.54 µM) | – | 6.25 µg/mL (≈ 11.1 µM) | 1.56 µg/mL (≈ 2.76 µM) | 3.13 µg/mL (≈ 5.54 µM) | < 0.2 µg/mL | 3.13 µg/mL (≈ 5.54 µM) | 1.56 µg/mL (≈ 2.76 µM) | 25 µg/mL (≈ 44.3 µM) | 3.13 µg/mL (≈ 5.54 µM) | 1.56 µg/mL (≈ 2.76 µM) | 1.56 µg/mL (≈ 2.76 µM) | 12.5 µg/mL (≈ 22.1 µM) | < 0.2 µg/mL | 50 to 100 mg/kg | 50 µg/mL (≈ 88.5 µM) | 0.2 µg/mL (≈ 0.354 µM) | 50 µg/mL (≈ 88.5 µM) | MIC ([4]; K12ML1410, 18 h): 3.13 µg/mL (≈ 5.54 µM); MIC (Proteus rettgeri GN466; GN466, 18 h): 6.25 µg/mL (≈ 11.1 µM); MIC ([13]; K12ML1629, 18 h): 3.13 µg/mL (≈ 5.54 µM); MIC ([15]; PCI602, 18 h): 1.56 µg/mL (≈ 2.76 µM); MIC (Sarcina lutea PCI 1001; PCI1001, 18 h): 1.56 µg/mL (≈ 2.76 µM); MIC ([18]; JR66/W677, 18 h): 3.13 µg/mL (≈ 5.54 µM)

Source: US4410516A, “1-N(αHydroxy-ω-aminoalkanoyl) derivatives of 5,3',4'-trideoxy- or 5,3', 4'-trideoxy-6'-N- methyl- or 5, 3', 4',6"-tetradeoxykannamyci B and production thereof” (Zaidan Hojin Biseibutsu Kagaku Kenkyu Kai, priority 1981, dated 1983)
